This test deals with Rainbow trout (Onchorhynchus mykiss, Shasta strain). Briefly: Rainbow trout feeding trial, 84 days: whole or disrupted Phaffia yeast versus synthetic astaxanthin. Type of test: in vivo. The conditions noted are these: after 84 days of feeding, FIG. 10, Phaffia versus synthetic astaxanthin. As for the experimental part:
The Phaffia strain was grown in a 2,000 l fermentor in a manner substantially described as above. Cells were concentrated to 15-22% solids by centrifugation and dried. The feed was processed by Zeigler Bros. Inc., […], Pa. The novel Phaffia rhodozma or synthetic astaxanthin (5% Carophyll Pink, Hoffmann-LaRoche) were incorporated into their #1⁄8 Trout Grower pelleted food. Rainbow trout (Onchorhynchus mykiss, Shasta strain) were obtained from a local commercial trout grower. After acclimation to laboratory conditions and an experimental control diet, the trout were moved into separate experimental tanks (28 fish per tank). […] Collectively, the procedures and diets employed in the experiments were designed to result in near-optimal growth of trout at 10 C, the approximate temperature at which most commercially-produced trout are raised. […] The fish were stunned by a blow to the head; total length measured; weight after blotting dry determined; and then each fish was cut across the isthmus severing the ventral aorta. […] The carotenoids were then partitioned into hexanes:ethyl acetate (1:1 by volume) and the total carotenoid and astaxanthin content were determined as described above in the section entitled PIGMENT EXTRACTION AND ASTAXANTHIN ANALYSIS. […] The DMSO extracted carotenoids were then quantified as described above in the section entitled PIGMENT EXTRACTION AND ASTAXANTHIN ANALYSIS. […]

SMILES strings stand for the structures.

As for `CC1=C(/C=C/C(C)=C/C=C/C(C)=C/C=C/C=C(C)/C=C/C=C(C)/C=C/C2=C(C)C(=O)C(O)CC2(C)C)C(C)(C)CC(O)C1=O` (stereo not drawn) [synthetic astaxanthin, 3,3′-dihydroxy-β,β-carotene-4,4′-dione], the flesh carotenoid content entry is recorded as “the same”.
